Test results published in patent publication US5397774A, “Pyrazolopyrimidine and pyrimidinyl bisphosphonic esters as anti-inflammatories” (The Upjohn Company, priority 1993, dated 1995).
Where a name gives a salt, the structure may show the parent alone.

Test system: DTH granuloma (DTH GRA) lesion in mBSA-sensitized mice
Assay: Delayed Type Hypersensitivity Granuloma Assay (DTH GRA) model for inflammation
Format: in vivo, mouse
Settings: Mus musculus, po, 216 h, 10 mg/kg PO, mouse DTH granuloma excised after nine days
Procedure: This assay is described by Dunn, C.
Briefly, mBSA-sensitized mice have a DTH granuloma (DTH GRA) lesion induced by subcutaneously implanting a mBSA-soaked filter which is excised after nine days. Compounds are administered to the mice to determine their effect on the lesions. The results are recorded as percent inhibition. […] Inhibition of 10 to 20% is considered to indicate anti-granuloma activity.
Again, as in Table 1, the results are recorded as percent inhibition. […] Inhibition of 10 to 20% is considered to indicate anti-granuloma activity. […]

Compound	inhibition in vivo at 10 mg/kg (Table 2, Formula 2 compounds)	inhibition in vivo at 10 mg/kg (Table 1, Formula 1 compounds)
CCOP(=O)(O)C(CCc1nc(-c2ccccc2)cc(=O)n1C)P(=O)(OCC)OCC (stereo not shown) [rr, (3-(2-(3-Methyl-4-oxo-6-phenyl-4(3H)-pyrimidinyl))-propylidine)bisphosphonic acid triethyl ester sodium salt]	50%	
COP(=O)(OC)C(CCc1cc(C)nc2c(C#N)c(C)nn12)P(=O)(OC)OC [m, (3-(3-Cyano-2,5-dimethyl-pyrazolo(1,5-a)pyrimidin-7-yl)-propylidene)bisphosphonic acid tetramethyl ester]		41%
CCOP(=O)(OCC)C(CCc1cc(C)nc2c(C#N)c(-c3ccccc3)nn12)P(=O)(OCC)OCC [c, (3-(3-Cyano-5-methyl-2-phenyl-pyrazolo(1,5-a)pyrimidin-7-yl)-propylidene)bisphosphonic acid tetraethyl ester]		26%
CCOP(=O)(OCC)C(CCc1cc(C)nc2c(Br)c(C)nn12)P(=O)(OCC)OCC [d, (3-(3-Bromo-2,5-dimethyl-pyrazolo(1,5-a)pyrimidin-7-yl)-propylidene)bisphosphonic acid tetraethyl ester]		44%
